Results from US9192589B2, “Chalcones as enhancer of antimicrobial agents” (priority 2009, dated 2015).
In brackets after ≈: the same amount, converted by molar mass. Read-outs that look alike come from different tables or passages of the source.

How the values were obtained:
Actinomyces viscosus = experiment: MIC of antibacterial agents alone and in combination with CK-4; type: cell-based; details: A. viscosus
Text: (§1) The checkerboard method is the most frequently used method to access the antimicrobial combinations in vitro. The term “checkerboard” refers to the pattern (of tubes or microtiter plate wells) formed by multiple dilutions of two drugs being tested (Eliopoulos G M, Moellering R C. Antimicrobial Combinations, in: Antibiotics in Laboratory Medicine: USA: Williams & Wilkins). In the present study the checkerboard consisted of columns in which each tube (or well) contains the same amount of the standard drug (antibacterial/antifungal/anti-TB/antiviral) being diluted along the x-axis and rows in which each tube (or well) contains the same amount of the potentiator being diluted on the y-axis. As a result each square in the checkerboard (which represents one tube/well or plate) contained a unique combination of the standard drug and potentiator. The concentration range of standard drug in the present study was 64 μg/ml to 0.03 μg/ml, whereas the potentiator was tested in the range of 500 μg/ml to 0.2 μg/ml. This checkerboard technique can be performed with liquid or semisolid (agar) media.
(§2) In the agar method the agar (Mueller Hinton agar, Middlebrook 7H10 agar) was autoclaved and allowed to cool to 55° C. to 50° C. The combination of the standard drug and the potentiator was added to the agar. Serial two fold dilutions of each of standard drug and the potentiator were prepared in appropriate solvents. In order to maintain the desired concentrations of both agar and drugs, and to rule out the effect of solvent, the volume of solvent (containing standard drug or potentiator) added to agar was kept small (i.e. ≦5% of the total volume). After the agar plates have been poured and allowed to dry, the bacteria to be tested were applied to the surface of agar with a replicating device designed to deliver a standard inoculum (approx 10^4 cfu/spot). The plates were incubated at 37° C. for 24 hrs (3 weeks in case of Mycobacterium tuberculosis).
(§3) The above-mentioned checkerboard was also performed with liquid media in a microtiter plate format. This method was used to study the combination of antibacterial/antifungal/antiviral drugs with potentiator.
(§4) Minimum Inhibitory Concentration (MIC) of triclosan alone and in combination with the above mentioned chalcone compound was performed against Streptococcus mutans, Actinomyces viscosus and Fusobacterium nucleatum, using method described in the study design.
(§5) Minimum Inhibitory Concentration (MIC) of magnolol alone and in combination with the above mentioned chalcone compound was performed against Streptococcus mutans, Actinomyces viscosus and Fusobacterium nucleatum, using method described in the study design.
(§6) Minimum Inhibitory Concentration (MIC) of honokiol alone and in combination with the above mentioned chalcone compound was performed against Streptococcus mutans, Actinomyces viscosus and Fusobacterium nucleatum, using method described in the study design.

Fusobacterium nucleatum = experiment: as above; type: cell-based; details: F. nucleatum
Text: as §1, §2, §3, §4, §5, §6

Streptococcus mutans = experiment: as above; type: cell-based; details: S. mutans
Text: as §1, §2, §3, §4, §5, §6

A. Viscosus biofilm = experiment: Inhibition of single species biofilm formation (BEC50, crystal violet); type: cell-based, Actinomyces viscosus; parameters: unit not given here; details: 24 hours; for BEC50 alone: agent alone
Procedure: (§7) Actinomyces viscosus (ATCC#43146) was grown in trypticase soy broth supplemented with 0.6% yeast extract (TSB-YE) at 37° C., static culture. For mixed species assays, the source of bacteria was a continuous culture chemostat inoculated with A. viscosus, Lactobacillus casei (ATCC #334), Streptococcus oxalis (ATCC #35037), Fusobacterium nucleatum (ATCC #10953), and Veilonella parvula (ATCC #17745). This mixed culture was maintained in a specialized complex medium in a continuous culture chemostat at 37° C.
To assess the bioenhancing ability of CK-4, inhibition of single species biofilm formation tests were conducted. Actives of interest were plated in the first column of a sterile 384-well culture plate and serial twofold dilutions were performed across the plate in 0.5× TSB. First generation cultures of A. Viscosus bacteria were grown overnight in TSB-YE. Cultures were diluted to an OD610˜0.2 in 0.5×TSB and plated in the wells containing serial dilutions of actives. Plates were incubated for 24 hours at 37° C. to allow growth and biofilm formation to occur.
Following incubation, supernatants were removed from the plate and remaining biofilms were stained with 0.03% Grain's crystal violet. Stained plates were read on a Perkin Elmer EnVision microplate reader for absorbance at 590 nm.

[1] = tested on: Streptococcus mutans, Actinomyces viscosus and Fusobacterium nucleatum; experiment: Fold reduction in MIC over the three oral bacteria; type: cell-based; details: in combination with CK-4; over S. mutans, A. viscosus and F. nucleatum
Text: as §1, §2, §3, §4
Minimum Inhibitory Concentration (MIC) of magnolol alone and in combination with the above mentioned chalcone compound was performed against Streptococcus mutans, Actinomyces viscosus and Fusobacterium nucleatum, using method described in the study design. […]

[2] = tested on: Staphylococcus aureus SA-K2191 (MsrA overexpressing); experiment: Checkerboard MIC of erythromycin alone and in combination with chalcone; type: cell-based; details: for MIC: Staphylococcus aureus
[3] = tested on: Staphylococcus aureus SA-K2192 (TetK overexpressing); experiment: Checkerboard MIC of tetracycline alone and in combination with chalcone; type: cell-based
[4] = tested on: Staphylococcus aureus 1199B (NorA overexpressing); experiment: Checkerboard MIC of ciprofloxacin alone and in combination with chalcone; type: cell-based; details: for MIC: Staphylococcus aureus
[5] = tested on: Staphylococcus aureus ATCC 29213; experiment: Systemic infection model of mice, ED50 of ciprofloxacin; type: in vivo, Swiss albino mice; details: ATCC29213, iv, after seven days of observation
Procedure: Efficacy testing will be done using standard procedures. Primary efficacy evaluation may be done using the murine septicemia model (Yun et al. Journal of Antimicrob. Chemother., 2002, 46: 3071-3074). In this model a supra-lethal dose of bacteria is used to challenge the rodents. Treatment is initiated, varying either or both time(s) of treatment and dose of antibiotic. In these experiments both the antibiotic and the efflux pump inhibitor doses are varied.
The study was conducted to see the in vivo response of ciprofloxacin in combination with the above-mentioned efflux pump inhibitor. The Swiss albino mice were infected intravenously with Staphylococcus aureus ATCC 29213 (10^7 CFU/mouse). The infected mice were divided in groups and each group consisted of 6 mice. The treatment consisted of one dose immediately after the infection followed by the next dose after a gap of 6 hrs. The result was recorded as number of survivals each day.

A. viscosus = experiment: MIC assay using A. viscosus as reference organism (96-well, OD610); type: cell-based; details: Actinomyces viscosus, compound alone, 0.5x TSB, overnight 37° C.
Procedure: as §7

[6] = Actinomyces viscosus, agent alone, read-out: MIC
[7] = Fusobacterium nucleatum, agent alone, read-out: MIC
[8] = Streptococcus mutans, agent alone, read-out: MIC
[9] = in combination with CK-4 at 50 μg/ml
[10] = in combination with CK-14 at 50 μg/ml

Row | Molecule | MIC (Actinomyces viscosus; with CK-4 6.25 μg/ml) | MIC (Actinomyces viscosus; with CK-4 12.5 μg/ml) | MIC (Actinomyces viscosus; with CK-4 25 μg/ml) | MIC (Actinomyces viscosus; [6]) | MIC (Fusobacterium nucleatum; with CK-4 6.25 μg/ml) | MIC (Fusobacterium nucleatum; with CK-4 12.5 μg/ml) | MIC (Fusobacterium nucleatum; with CK-4 25 μg/ml) | MIC (Fusobacterium nucleatum; [7]) | MIC (Streptococcus mutans; with CK-4 6.25 μg/ml) | MIC (Streptococcus mutans; with CK-4 12.5 μg/ml) | MIC (Streptococcus mutans; with CK-4 25 μg/ml) | MIC (Streptococcus mutans; [8]) | BEC50 alone (A. Viscosus biofilm) | BEC50 with CK-4 (A. Viscosus biofilm) | reduction in MIC in combination with chalcone compound [1] | further results
1 | C=CCc1ccc(O)c(-c2ccc(O)c(CC=C)c2)c1 [Honokiol, honokiol] | 2.0 µg/mL | 1.0 µg/mL | 0.5 µg/mL | 4 µg/mL | 1.0 µg/mL | 1.0 µg/mL | 0.5 µg/mL | 2 µg/mL | 2.0 µg/mL | 1.0 µg/mL | 0.5 µg/mL | 4 µg/mL | 5.21 | 2.60 | Four to eight-fold | –
2 | CC[C@H]1OC(=O)[C@H](C)[C@@H](O[C@H]2C[C@@](C)(OC)[C@@H](O)[C@H](C)O2)[C@H](C)[C@@H](O[C@@H]2O[C@H](C)C[C@H](N(C)C)[C@H]2O)[C@](C)(O)C[C@@H](C)C(=O)[C@H](C)[C@@H](O)[C@]1(C)O [erythromycin] | – | – | – | – | – | – | – | – | – | – | – | – | – | – | – | MIC ([2]; read-out: MIC (μg/ml) of erythromycin for Staphylococcus aureus SA-K2191, erythromycin alone): 64 µg/mL; MIC ([2]; read-out: MIC (μg/ml) of erythromycin for Staphylococcus aureus SA-K2191, in combination with CK-4 6.25 μg/ml): 64 µg/mL; MIC ([2]; read-out: MIC (μg/ml) of erythromycin for Staphylococcus aureus SA-K2191, in combination with CK-4 12.5 μg/ml): 32 µg/mL; MIC ([2]; read-out: MIC (μg/ml) of erythromycin for Staphylococcus aureus SA-K2191, in combination with CK-4 25.0 μg/ml): 16 µg/mL; MIC ([2]; read-out: MIC (μg/ml) of erythromycin for Staphylococcus aureus SA-K2191, in combination with CK-4 50.0 μg/ml): 8 µg/mL; reduction in MIC of erythromycin [2, 9]: Up to eight-fold; reduction in MIC of erythromycin [2, 10]: Up to four-fold
3 | CN(C)[C@@H]1C(O)=C(C(N)=O)C(=O)[C@@]2(O)C(O)=C3C(=O)c4c(O)cccc4[C@@](C)(O)[C@H]3C[C@@H]12 [tetracycline] | – | – | – | – | – | – | – | – | – | – | – | – | – | – | – | MIC ([3]; read-out: MIC (μg/ml) of tetracycline for Staphylococcus aureus SA-K2192, in combination with CK-4 6.25 μg/ml): 32 µg/mL; MIC ([3]; read-out: MIC (μg/ml) of tetracycline for Staphylococcus aureus SA-K2192, in combination with CK-4 12.5 μg/ml): 16 µg/mL; MIC ([3]; read-out: MIC (μg/ml) of tetracycline for Staphylococcus aureus SA-K2192, in combination with CK-4 25.0 μg/ml): 8 µg/mL; MIC ([3]; read-out: MIC (μg/ml) of tetracycline for Staphylococcus aureus SA-K2192, in combination with CK-4 50.0 μg/ml): 4 µg/mL; MIC ([3]; read-out: MIC (μg/ml) of tetracycline for Staphylococcus aureus SA-K2192, tetracycline alone): 32 µg/mL
4 | Catechin | – | – | – | – | – | – | – | – | – | – | – | – | 26.04 | 26.04 | – | –
5 | O=C(O)c1cn(C2CC2)c2cc(N3CCNCC3)c(F)cc2c1=O [ciprofloxacin] | – | – | – | – | – | – | – | – | – | – | – | – | – | – | – | MIC ([4]; read-out: MIC (μg/ml) of ciprofloxacin for Staphylococcus aureus 1199B, ciprofloxacin alone): 8 µg/mL; MIC ([4]; read-out: MIC (μg/ml) of ciprofloxacin for Staphylococcus aureus 1199B, in combination with CK-4 6.25 μg/ml): 4 µg/mL; MIC ([4]; read-out: MIC (μg/ml) of ciprofloxacin for Staphylococcus aureus 1199B, in combination with CK-4 12.5 μg/ml): 2 µg/mL; MIC ([4]; read-out: MIC (μg/ml) of ciprofloxacin for Staphylococcus aureus 1199B, in combination with CK-4 25.0 μg/ml): 1 µg/mL; MIC ([4]; read-out: MIC (μg/ml) of ciprofloxacin for Staphylococcus aureus 1199B, in combination with CK-4 50.0 μg/ml): 0.5 µg/mL; reduction in MIC of ciprofloxacin [4, 9]: Up to sixteen-fold; reduction in MIC of ciprofloxacin [4, 10]: Up to eight-fold; ED50 ([5]; ciprofloxacin alone, mice infected i.v. with S. aureus ATCC 29213, two doses 6 hrs apart): 9.2 mg/kg; ED50 ([5]; in combination with the CK-4, mice infected i.v. with S. aureus ATCC 29213, two doses 6 hrs apart): 5.86 mg/kg
6 | C=CCc1ccc(O)c(-c2cc(CC=C)ccc2O)c1 [Magnolol, magnolol] | 1.0 µg/mL | 0.5 µg/mL | 0.25 µg/mL | 4 µg/mL | 1.0 µg/mL | 1.0 µg/mL | 0.5 µg/mL | 2 µg/mL | 2.0 µg/mL | 1.0 µg/mL | 0.5 µg/mL | 4 µg/mL | 3.91 | 1.95 | Up to sixteen-fold | –
7 | CCCCc1ccc(O)c(-c2cc(CCCC)ccc2O)c1 [Butyl magnolol, 5,5′-dibutylbiphenyl-2,2′-diol] | 4.0 µg/mL | 2.0 µg/mL | 1.0 µg/mL | 4 µg/mL | 2.0 µg/mL | 2.0 µg/mL | 1.0 µg/mL | 2 µg/mL | 4.0 µg/mL | 2.0 µg/mL | 1.0 µg/mL | 4 µg/mL | 0.65 | 0.24 | Two to four-fold | –
8 | COc1cc(/C=C/C(=O)c2ccccc2)ccc1O [CK-4, 3-(4′-Hydroxy-3′-methoxy-phenyl)-1-phenyl-prop-2-ene-1-one] | – | – | – | – | – | – | – | – | – | – | – | – | – | – | – | MIC (A. viscosus): > 100 µg/mL
9 | Oc1cc(Cl)ccc1Oc1ccc(Cl)cc1Cl [Triclosan, triclosan] | 2.0 µg/mL | 1.0 µg/mL | 0.5 µg/mL | 4 µg/mL | 1.0 µg/mL | 1.0 µg/mL | 0.5 µg/mL | 2 µg/mL | 2.0 µg/mL | 1.0 µg/mL | 0.5 µg/mL | 4 µg/mL | 1.95 | 0.98 | Four to eight-fold | MIC (A. viscosus): 3.5 µg/mL (≈ 12.1 µM)
10 | CCCc1ccc(O)c(-c2ccc(O)c(CCC)c2)c1 [Propyl Honokiol, propyl honokiol] | – | – | – | – | – | – | – | – | – | – | – | – | 0.49 | 0.65 | – | –
11 | O=C([O-])CC(O)(CC(=O)[O-])C(=O)[O-].O=C([O-])CC(O)(CC(=O)[O-])C(=O)[O-].[Zn+2].[Zn+2].[Zn+2] [Zinc Citrate] | – | – | – | – | – | – | – | – | – | – | – | – | 41.67 | 20.83 | – | –
